Experimental data published in ChEMBL document CHEMBL1201862, “PubChem BioAssay data set” (2004).
Active and inactive are the calls of the source.

Assays:
Trypsin = Trypsin (Sus scrofa, UniProt P00761); test: trypsin protease activity blockade – biochemical, quenched peptide fluorescence, cherry-pick, selectivity assay for Rce1 protease inhibitor project, dose response (AID 488789)
CAAX prenyl protease 2 = CAAX prenyl protease 2 (Homo sapiens, UniProt Q9Y256); test: inhibition of Ras-converting CAAX protease Rce1 – biochemical, yeast membranes, quenched-peptide fluorescence, cherry-pick, dose response (AID 588849)
Sequence of CAAX prenyl protease 2 (Q9Y256 whole entry): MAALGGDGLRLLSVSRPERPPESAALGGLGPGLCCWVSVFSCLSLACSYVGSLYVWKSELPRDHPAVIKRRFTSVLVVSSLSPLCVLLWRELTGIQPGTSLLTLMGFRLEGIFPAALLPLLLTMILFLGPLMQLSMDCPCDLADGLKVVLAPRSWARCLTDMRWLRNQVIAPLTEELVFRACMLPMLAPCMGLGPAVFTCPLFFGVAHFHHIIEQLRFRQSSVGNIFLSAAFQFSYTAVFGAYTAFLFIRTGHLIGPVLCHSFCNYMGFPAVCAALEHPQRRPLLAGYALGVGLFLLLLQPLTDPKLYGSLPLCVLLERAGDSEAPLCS

[1] = biological target: Voltage-gated inwardly rectifying potassium channel KCNH2 (Homo sapiens, UniProt Q12809); conditions: Potency;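 also: confirmatory quantitative high-throughput screen measuring inhibition of hERG channel activity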
Sequence of Voltage-gated inwardly rectifying potassium channel KCNH2 (Q12809 whole entry): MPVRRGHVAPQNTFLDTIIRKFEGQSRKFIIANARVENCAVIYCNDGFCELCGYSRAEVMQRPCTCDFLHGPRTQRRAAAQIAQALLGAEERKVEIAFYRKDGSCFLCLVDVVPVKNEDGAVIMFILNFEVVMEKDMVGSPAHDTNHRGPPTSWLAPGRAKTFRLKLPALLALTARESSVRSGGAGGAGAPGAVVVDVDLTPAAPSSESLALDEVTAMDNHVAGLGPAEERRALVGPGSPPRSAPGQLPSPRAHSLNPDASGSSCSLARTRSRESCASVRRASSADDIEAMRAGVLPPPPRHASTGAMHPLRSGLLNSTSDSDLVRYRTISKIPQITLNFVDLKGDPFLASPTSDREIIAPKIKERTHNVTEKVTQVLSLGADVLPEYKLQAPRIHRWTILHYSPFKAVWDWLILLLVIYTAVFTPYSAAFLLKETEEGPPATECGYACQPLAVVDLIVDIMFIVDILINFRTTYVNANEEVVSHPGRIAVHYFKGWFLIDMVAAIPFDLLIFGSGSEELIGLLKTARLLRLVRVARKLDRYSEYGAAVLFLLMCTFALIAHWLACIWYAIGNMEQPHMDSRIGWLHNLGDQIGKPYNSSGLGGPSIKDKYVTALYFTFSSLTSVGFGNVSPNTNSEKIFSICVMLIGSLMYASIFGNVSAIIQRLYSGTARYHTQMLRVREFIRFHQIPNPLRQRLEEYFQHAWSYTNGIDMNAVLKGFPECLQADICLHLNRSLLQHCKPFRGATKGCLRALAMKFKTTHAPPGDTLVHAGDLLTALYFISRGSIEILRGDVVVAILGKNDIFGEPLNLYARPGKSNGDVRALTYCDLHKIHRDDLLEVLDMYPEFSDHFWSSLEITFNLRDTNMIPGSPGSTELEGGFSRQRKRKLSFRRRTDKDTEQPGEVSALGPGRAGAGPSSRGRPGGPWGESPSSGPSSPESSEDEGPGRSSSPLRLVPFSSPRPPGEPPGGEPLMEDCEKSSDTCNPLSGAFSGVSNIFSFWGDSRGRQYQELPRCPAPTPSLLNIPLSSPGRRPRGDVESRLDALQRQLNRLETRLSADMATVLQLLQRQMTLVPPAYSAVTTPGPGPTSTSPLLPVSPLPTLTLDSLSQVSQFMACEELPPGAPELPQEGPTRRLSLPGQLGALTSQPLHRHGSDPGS

HEK293 [2] = test: cells; conditions: Homo sapiens
[3] = biological target: T1, Heat shock factor protein 1 (Mus musculus, UniProt P38532); test: enhancement of HSF1-driven luciferase signal – cell-based, NIH3T3, luminescence, dose retest, confirmation (AID 435004); type: functional;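 also: stress induced by proteasome inhibitor MG132 added 30 min after compound; luciferase reporter driven by HSF1 response element in NIH3T3 cells; actives raise luminescence as potentiators of the MG132 stress response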
T1 sequence (P38532 whole entry): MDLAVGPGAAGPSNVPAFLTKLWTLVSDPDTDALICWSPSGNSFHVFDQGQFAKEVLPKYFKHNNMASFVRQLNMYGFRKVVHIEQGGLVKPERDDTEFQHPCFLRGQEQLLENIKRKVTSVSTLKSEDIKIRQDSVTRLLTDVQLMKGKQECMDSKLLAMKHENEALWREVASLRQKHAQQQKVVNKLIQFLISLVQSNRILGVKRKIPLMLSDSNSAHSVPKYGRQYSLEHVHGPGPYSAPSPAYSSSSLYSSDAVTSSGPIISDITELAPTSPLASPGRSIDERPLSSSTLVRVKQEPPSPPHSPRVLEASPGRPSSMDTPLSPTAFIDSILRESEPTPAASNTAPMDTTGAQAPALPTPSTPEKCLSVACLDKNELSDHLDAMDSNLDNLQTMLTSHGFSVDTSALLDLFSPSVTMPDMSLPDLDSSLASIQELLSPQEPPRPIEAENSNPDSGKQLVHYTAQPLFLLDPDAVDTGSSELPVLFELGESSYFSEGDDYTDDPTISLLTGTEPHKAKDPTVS

BJ [4] = test: BJ-TERT-LT-ST fibroblast viability loss – cell-based, RAS-independent, luminescence, dose response (AID 1935); type: functional; conditions: Homo sapiens;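 also: BJ fibroblasts immortalized with TERT plus LT and ST oncogenes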
[5] = DRD fibroblast viability loss – cell-based, non-viral oncogenic, luminescence, dose response (AID 1934); type: functional; conditions: Homo sapiens
HEK293 [6] = test: cells; conditions: Homo sapiens; remark: listed apart in the source
BJ [7] = test: cells; type: functional, cell-based; conditions: Homo sapiens
BJ [8] = test: BJ-TERT fibroblast viability loss – cell-based, RAS-independent, luminescence, dose response (AID 1933); type: functional; conditions: Homo sapiens
[9] = biological target: T2, Microphthalmia-associated transcription factor (Homo sapiens, UniProt O75030); test: reducers of TRPM1 reporter luminescence, concentration series – cell-based, SK-MEL-5, cherry-picked, set 3, MITF inhibitor project, dose response (AID 493073); type: functional;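 also: SK-MEL-5 melanoma cells with luciferase driven by the MITF target TRPM1 promoter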
T2 sequence (O75030 whole entry): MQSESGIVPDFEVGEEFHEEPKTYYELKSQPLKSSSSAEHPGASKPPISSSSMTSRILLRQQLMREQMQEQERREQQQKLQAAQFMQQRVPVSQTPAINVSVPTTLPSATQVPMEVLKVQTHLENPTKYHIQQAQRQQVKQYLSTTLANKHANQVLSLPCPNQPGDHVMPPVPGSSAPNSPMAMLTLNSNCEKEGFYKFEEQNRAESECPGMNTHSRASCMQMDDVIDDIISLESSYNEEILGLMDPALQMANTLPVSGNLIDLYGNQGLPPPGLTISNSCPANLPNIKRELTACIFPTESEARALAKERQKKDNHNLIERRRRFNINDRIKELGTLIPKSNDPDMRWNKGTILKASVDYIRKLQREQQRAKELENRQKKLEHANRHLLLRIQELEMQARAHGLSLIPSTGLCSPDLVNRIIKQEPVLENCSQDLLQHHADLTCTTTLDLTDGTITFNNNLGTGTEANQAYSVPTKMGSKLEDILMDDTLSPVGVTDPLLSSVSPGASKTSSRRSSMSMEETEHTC

HeLa = test: ATP-based viability loss in HeLa cells – cell-based, CellTiter-Glo luminescence, cherry-pick samples, cytotoxicity control for MITF activator project, dose response (AID 540259); type: functional; conditions: Homo sapiens
[10] = biological target: Nucleotide-binding oligomerization domain-containing protein 1 (Homo sapiens, UniProt Q9Y239); test: blockers of NOD1 pathway activity – revised, SAR follow-up (AID 2333); type: functional
Sequence of Nucleotide-binding oligomerization domain-containing protein 1 (Q9Y239 whole entry, the tested form may be a part): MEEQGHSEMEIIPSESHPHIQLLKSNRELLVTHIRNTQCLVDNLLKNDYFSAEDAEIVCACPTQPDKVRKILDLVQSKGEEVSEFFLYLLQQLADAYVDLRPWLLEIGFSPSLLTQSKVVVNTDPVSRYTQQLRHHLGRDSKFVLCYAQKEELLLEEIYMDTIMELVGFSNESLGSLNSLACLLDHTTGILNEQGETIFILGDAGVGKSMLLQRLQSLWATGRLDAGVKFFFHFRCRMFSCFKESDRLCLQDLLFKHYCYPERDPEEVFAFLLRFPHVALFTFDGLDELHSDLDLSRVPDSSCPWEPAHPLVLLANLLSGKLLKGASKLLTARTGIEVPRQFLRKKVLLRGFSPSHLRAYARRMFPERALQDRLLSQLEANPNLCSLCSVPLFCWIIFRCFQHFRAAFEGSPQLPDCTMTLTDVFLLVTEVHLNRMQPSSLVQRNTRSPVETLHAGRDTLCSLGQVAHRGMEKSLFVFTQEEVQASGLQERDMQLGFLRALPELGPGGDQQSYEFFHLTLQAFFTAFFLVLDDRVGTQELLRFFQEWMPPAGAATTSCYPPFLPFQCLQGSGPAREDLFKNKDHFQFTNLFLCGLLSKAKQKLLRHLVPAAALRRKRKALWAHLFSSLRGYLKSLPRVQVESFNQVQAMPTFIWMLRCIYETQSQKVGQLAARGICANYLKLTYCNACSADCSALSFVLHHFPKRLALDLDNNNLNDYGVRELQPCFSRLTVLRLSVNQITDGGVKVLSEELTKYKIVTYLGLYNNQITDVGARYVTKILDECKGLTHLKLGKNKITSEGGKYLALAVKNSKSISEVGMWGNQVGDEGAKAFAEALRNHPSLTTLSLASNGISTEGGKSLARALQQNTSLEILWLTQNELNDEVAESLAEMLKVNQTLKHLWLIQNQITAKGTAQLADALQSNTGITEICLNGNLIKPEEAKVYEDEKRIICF

HEK293 [11] = test: cells; conditions: Homo sapiens; remark: listed apart in the source
Tumor necrosis factor = Tumor necrosis factor (Homo sapiens, UniProt P01375); test: analog potency on TNFa NF-kB signaling – cell-based, revised, SAR follow-up (AID 2337); type: functional
Sequence of Tumor necrosis factor (P01375 whole entry): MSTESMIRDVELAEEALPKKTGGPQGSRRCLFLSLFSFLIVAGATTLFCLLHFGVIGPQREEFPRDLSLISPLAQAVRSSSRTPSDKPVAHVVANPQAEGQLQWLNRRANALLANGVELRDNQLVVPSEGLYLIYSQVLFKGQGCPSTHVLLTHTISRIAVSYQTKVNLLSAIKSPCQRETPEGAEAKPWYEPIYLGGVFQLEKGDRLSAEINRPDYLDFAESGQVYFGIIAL

Cytochrome P450 2D6 = Cytochrome P450 2D6 (Homo sapiens, UniProt P10635);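 also: CYP2D6 member of a cytochrome P450 panel assay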
Sequence of Cytochrome P450 2D6 (P10635 whole entry): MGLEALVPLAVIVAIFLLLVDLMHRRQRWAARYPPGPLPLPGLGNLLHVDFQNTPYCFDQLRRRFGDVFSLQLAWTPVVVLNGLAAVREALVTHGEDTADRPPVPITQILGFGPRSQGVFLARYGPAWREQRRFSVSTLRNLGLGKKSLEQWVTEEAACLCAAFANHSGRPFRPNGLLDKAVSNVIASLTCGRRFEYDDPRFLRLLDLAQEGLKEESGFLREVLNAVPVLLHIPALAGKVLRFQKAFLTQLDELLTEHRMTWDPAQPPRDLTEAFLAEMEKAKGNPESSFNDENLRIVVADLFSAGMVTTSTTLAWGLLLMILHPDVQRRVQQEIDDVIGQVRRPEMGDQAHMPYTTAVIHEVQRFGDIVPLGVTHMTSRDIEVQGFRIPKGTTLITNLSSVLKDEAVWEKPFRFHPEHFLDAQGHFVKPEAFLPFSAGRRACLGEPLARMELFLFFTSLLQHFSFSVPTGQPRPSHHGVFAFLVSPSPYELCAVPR

[12] = biological target: T3, Sentrin-specific protease 8 (Homo sapiens, UniProt Q96LD8); test: inhibition of human SENP8 cleavage activity – biochemical, luminescence, SAR follow-up (AID 504501); type: functional
T3 sequence (Q96LD8 whole entry): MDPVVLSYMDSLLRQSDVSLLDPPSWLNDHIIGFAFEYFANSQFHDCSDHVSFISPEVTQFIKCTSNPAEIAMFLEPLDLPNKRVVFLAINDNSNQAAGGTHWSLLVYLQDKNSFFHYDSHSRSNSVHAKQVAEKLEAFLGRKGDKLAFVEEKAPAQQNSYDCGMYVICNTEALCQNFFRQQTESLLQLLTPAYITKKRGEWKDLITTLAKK

[13] = biological target: T4, Sentrin-specific protease 7 (Homo sapiens, UniProt Q9BQF6); test: inhibition of human SENP7 cleavage activity – biochemical, luminescence, SAR follow-up (AID 504497); type: functional
T4 sequence (Q9BQF6 whole entry): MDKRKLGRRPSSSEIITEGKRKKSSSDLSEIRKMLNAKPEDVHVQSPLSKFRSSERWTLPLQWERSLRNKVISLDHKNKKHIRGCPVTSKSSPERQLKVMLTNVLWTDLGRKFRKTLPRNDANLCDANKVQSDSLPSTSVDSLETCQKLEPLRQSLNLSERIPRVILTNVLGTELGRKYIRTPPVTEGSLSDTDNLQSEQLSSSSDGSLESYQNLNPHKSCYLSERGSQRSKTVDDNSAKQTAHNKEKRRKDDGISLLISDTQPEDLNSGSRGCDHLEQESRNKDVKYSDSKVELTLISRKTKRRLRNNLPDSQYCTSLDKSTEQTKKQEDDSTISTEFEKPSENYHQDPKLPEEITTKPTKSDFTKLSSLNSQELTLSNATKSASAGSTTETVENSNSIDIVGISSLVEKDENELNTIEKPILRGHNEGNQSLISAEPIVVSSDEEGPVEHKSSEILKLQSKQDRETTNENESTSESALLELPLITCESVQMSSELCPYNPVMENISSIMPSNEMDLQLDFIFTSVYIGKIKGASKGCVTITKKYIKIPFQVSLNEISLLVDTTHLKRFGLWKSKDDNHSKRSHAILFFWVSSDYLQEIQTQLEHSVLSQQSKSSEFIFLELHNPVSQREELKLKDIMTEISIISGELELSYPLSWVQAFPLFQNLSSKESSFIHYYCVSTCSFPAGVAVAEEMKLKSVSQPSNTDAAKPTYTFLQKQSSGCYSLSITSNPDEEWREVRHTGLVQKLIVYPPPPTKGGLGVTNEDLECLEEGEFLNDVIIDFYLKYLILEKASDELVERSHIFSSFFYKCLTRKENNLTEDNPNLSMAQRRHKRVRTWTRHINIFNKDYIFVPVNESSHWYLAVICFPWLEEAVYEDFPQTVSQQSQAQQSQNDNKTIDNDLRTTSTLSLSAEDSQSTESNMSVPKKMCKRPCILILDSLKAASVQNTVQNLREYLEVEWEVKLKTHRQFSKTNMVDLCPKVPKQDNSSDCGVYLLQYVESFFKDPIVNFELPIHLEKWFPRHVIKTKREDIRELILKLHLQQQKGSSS

Caspase-3 = biological target: T5, Caspase-3 (Homo sapiens, UniProt P42574); test: SAR Analysis of small molecule inhibitors of Sentrin-specific proteases (SENPs) using a Caspase-3 Selectivity assay. [Related pubchem assays (depositor defined):AID2540, AID2599, AID434973, AID489001]; type: functional
T5 sequence (P42574 whole entry): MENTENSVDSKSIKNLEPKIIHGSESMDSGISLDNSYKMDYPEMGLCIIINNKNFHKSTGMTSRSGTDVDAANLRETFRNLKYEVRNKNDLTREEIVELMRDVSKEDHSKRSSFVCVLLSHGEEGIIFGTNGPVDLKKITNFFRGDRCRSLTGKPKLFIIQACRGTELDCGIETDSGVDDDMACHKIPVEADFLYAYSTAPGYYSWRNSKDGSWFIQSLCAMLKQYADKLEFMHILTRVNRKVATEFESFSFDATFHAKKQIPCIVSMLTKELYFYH

[14] = biological target: T6, Sentrin-specific protease 6 (Homo sapiens, UniProt Q9GZR1); test: SAR Analysis of small molecule inhibitors of Sentrin-specific protease 6 (SENP6) using a Luminescent assay. [Related pubchem assays (depositor defined):AID2582, AID2599]; type: functional
T6 sequence (Q9GZR1 whole entry): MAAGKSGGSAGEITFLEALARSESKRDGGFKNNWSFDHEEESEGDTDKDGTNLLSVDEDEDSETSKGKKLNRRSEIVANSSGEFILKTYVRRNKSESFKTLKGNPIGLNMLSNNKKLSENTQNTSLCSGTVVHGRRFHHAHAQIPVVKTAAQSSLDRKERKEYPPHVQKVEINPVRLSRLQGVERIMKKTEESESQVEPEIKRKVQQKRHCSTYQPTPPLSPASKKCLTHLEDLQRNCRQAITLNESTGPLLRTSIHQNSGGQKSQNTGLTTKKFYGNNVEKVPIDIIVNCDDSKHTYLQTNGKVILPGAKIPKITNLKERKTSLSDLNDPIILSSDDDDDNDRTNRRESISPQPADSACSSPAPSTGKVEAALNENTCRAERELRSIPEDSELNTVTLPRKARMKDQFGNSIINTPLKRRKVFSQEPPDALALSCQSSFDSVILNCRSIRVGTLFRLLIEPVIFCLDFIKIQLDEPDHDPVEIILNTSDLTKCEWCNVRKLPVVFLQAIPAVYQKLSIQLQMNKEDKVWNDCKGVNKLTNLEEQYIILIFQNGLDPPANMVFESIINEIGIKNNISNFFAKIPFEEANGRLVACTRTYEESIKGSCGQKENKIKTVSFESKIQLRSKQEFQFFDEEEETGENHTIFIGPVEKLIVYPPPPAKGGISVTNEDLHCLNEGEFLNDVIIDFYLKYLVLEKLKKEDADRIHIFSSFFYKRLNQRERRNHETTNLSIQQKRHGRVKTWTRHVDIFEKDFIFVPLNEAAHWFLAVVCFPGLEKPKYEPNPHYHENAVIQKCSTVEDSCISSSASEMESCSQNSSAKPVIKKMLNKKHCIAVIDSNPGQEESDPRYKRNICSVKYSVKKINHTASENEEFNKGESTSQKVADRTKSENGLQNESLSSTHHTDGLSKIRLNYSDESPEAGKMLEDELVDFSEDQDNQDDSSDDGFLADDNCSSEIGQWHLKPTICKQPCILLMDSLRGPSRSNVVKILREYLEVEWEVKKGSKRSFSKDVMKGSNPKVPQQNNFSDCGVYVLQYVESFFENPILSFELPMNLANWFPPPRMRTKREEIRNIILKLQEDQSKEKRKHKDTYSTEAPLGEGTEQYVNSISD

Sequence of Trypsin (P00761 whole entry): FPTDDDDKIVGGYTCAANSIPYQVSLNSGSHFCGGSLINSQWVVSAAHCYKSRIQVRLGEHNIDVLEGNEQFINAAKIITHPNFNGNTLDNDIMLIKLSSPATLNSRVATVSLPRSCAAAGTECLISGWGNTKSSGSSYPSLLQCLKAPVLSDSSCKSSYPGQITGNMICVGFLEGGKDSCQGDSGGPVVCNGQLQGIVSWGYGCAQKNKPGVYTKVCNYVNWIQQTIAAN

For `COc1ccccc1Oc1c(C)oc2c(CN3CCN(CCO)CC3)c(O)ccc2c1=O`, the AC50 (Trypsin) was 5.25 µM (active) and the AC50 (CAAX prenyl protease 2) was 2.48 µM (active).
In the case of `N=C(N)SCCc1cccc(CCSC(=N)N)c1`, the AC50 [1] was 20 µM (inconclusive).
With `CN(C)c1nc(C=C(C#N)C#N)c(Cl)n1-c1ccc(F)cc1` the EC50 (HEK293 [2]) was > 59.6 µM (inactive), the EC50 [3] was 27.8 µM (active) and the EC50 (BJ [4]) was 5.12 µM (inconclusive). For the same molecule, the EC50 [5] was 4.24 µM (active), the EC50 (HEK293 [6]) was > 59.6 µM (inactive) and the EC50 (BJ [7]) was 5 µM (active). The EC50 (BJ [8]) was 4.83 µM (active) and the AC50 [9] was 3.92 µM (active).
For `CC(c1ccccc1)c1nnc(NC(=O)Nc2ccccc2F)s1` (stereo not given), the AC50 (HeLa) was 52.5 µM (active).
In the case of `Cc1ccc(N2CCN(S(=O)(=O)c3ccc4c(c3)CC(C)N4C(=O)C3CC3)CC2)cc1` (stereo not given), the IC50 [10] was > 20 µM (inactive), the IC50 (HEK293 [11]) was > 20 µM (inactive) and the IC50 (Tumor necrosis factor) was > 20 µM (inactive).
For `NCCCc1c(-c2ccccc2)nc(N)[nH]c1=O`, the AC50 (Cytochrome P450 2D6) was “inconclusive”.
With `Nc1ccccc1-c1noc(/C=C/c2ccccc2Cl)n1` the IC50 [12] was > 99 µM (inactive), the IC50 [13] was 71.3 µM (active) and the IC50 (Caspase-3) was > 99 µM (inactive). The IC50 [14] was > 99 µM (inactive).
